The values below are quoted from earlier work in patent US9433620B2, “Pharmaceutical compositions of lurasidone” (CADILA HEALTHCARE LIMITED, priority 2011, dated 2016).

Structures can show the parent of a compound that is named as a salt.

Regarding `O=C1[C@@H]2[C@H]3CC[C@H](C3)[C@@H]2C(=O)N1C[C@@H]1CCCC[C@H]1CN1CCN(c2nsc3ccccc23)CC1` [lurasidone, N-[4-[4-(1,2-benzisothiazol-3-yl)-1-piperazinyl]-(2R,3R)-2,3-tetramethyle-ne-butyl]-(1′R,2′S,3′R,4′S)-2,3-bicyclo[2,2,1]heptanedicarboxylmide hydrochloride], the solubility in water entry was “less than several”.
